Results from article PMC2775099 (Bioorganic & medicinal chemistry, 2009).

Target: rat nNOS (Rattus norvegicus, UniProt P29476)
Details: for potency with nNOS relative to 1: amine in the chain replaced with ether or amide

SMILES	loss of binding affinity relative to 1 (nNOS, amine replaced with amide)	potency with nNOS relative to 1
Cc1cc(N)nc(CC2CNCC2NC(=O)CNCCc2cccc(F)c2)c1 (stereo not drawn) [compound 3, N-(4-((6-Amino-4-methylpyridin-2-yl)-methyl)-pyrrolidin-3-yl)-2-(3-fluorophenethylamino)-acetamide]	3-4 fold	
Cc1cc(N)nc(CC2CNCC2NCCOCCc2cccc(F)c2)c1 (stereo not drawn) [compound 4, 6-((4-(2-(3-Fluorophenethoxy)ethylamino)pyrrolidin-3-yl)methyl)-4-methyl-pyridin-2-amine]		significant loss in potency
Cc1cc(N)nc(CC2CNCC2OCCNC(=O)Cc2cccc(F)c2)c1 (stereo not drawn) [compound 6, N-(2-(4-((6-Amino-4-methylpyridin-2-yl)-methyl)pyrrolidin-3-yloxy)ethyl)-2-(3-fluorophenyl)acetamide]		significant loss in potency
